Read-outs that look alike come from different tables or passages of the source.
Tests used:
[1] = molecular target: T1, rBmAChE II (recombinant Bombyx mori type II acetylcholinesterase) (Bombyx mori, UniProt B0FGT2); format: biochemical; settings: 30 µL (printed 30 mL) of 0.1 mg/mL physostigmine, 10 min preincubation at 37 °C; crude enzyme supernatant; ATChI substrate, DTNB, 50 mM phosphate
T1 construct: gene ace2; predicted N-terminal signal peptide removed, codon-optimized, pPIC9K in Pichia pastoris GS115, secreted; crude culture supernatant; 604 residues
T1 sequence (B0FGT2 entry or part of it): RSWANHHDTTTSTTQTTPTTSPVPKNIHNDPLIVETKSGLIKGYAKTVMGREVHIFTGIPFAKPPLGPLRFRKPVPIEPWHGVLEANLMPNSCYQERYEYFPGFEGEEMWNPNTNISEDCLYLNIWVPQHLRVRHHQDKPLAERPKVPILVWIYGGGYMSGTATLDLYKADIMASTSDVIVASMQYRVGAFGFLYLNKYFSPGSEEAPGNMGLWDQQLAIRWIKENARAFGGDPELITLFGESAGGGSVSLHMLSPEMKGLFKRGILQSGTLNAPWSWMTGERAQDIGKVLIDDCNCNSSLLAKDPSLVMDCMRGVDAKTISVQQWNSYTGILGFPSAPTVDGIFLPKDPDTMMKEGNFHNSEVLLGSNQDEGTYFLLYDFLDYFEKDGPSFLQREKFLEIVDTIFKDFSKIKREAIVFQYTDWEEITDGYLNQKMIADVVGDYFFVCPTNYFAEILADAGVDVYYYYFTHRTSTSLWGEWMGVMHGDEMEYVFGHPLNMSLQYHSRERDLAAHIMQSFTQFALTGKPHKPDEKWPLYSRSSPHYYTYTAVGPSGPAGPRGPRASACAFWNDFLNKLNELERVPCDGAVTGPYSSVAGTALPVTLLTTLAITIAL

[2] = molecular target: T1, rBmAChE II (recombinant Bombyx mori type II acetylcholinesterase); assay: Ellman assay inhibition; format: biochemical; settings: crude enzyme supernatant; substrate acetylthiocholine iodide (ATChI), DTNB, 50 mM phosphate, 37 °C; covalent
Excerpt: Ellman assay inhibition on rBmAChE II (recombinant Bombyx mori type II acetylcholinesterase) | inhibition of rBmAChE II mutants by various pesticides (malathion, methomyl, carbaryl, and carbofuran-3-hydroxy)

[3] = molecular target: T2, rBmAChE II (recombinant Bombyx mori type II acetylcholinesterase) (Bombyx mori, UniProt B0FGT2, Y398G); settings: crude enzyme supernatant; substrate acetylthiocholine iodide (ATChI), DTNB, 50 mM phosphate, 37 °C; covalent
T2 construct: gene ace2
T2 sequence (B0FGT2 entry or part of it Y398G): as the sequence (B0FGT2 entry or part of it) above, with Y375G counted along it

[4] = molecular target: T3, rBmAChE II (recombinant Bombyx mori type II acetylcholinesterase) (Bombyx mori, UniProt B0FGT2, Y398W); settings: crude enzyme supernatant, substrate acetylthiocholine iodide (ATChI), DTNB, 50 mM phosphate, 37 °C, covalent
T3 construct: gene ace2
T3 sequence (B0FGT2 entry or part of it Y398W): as the sequence (B0FGT2 entry or part of it) above, with Y375W counted along it

[5] = molecular target: T4, rBmAChE II (recombinant Bombyx mori type II acetylcholinesterase) (Bombyx mori, UniProt B0FGT2, Y398F); settings: crude enzyme supernatant; substrate acetylthiocholine iodide (ATChI), DTNB, 50 mM phosphate, 37 °C; covalent
T4 construct: gene ace2
T4 sequence (B0FGT2 entry or part of it Y398F): as the sequence (B0FGT2 entry or part of it) above, with Y375F counted along it

| Structure (SMILES) | Ellman assay, remaining activity [1] | IC50 [2] | IC50 [3] | IC50 [4] | IC50 [5] | IC50 ([4]; stated gain) |
| --- | --- | --- | --- | --- | --- | --- |
| CNC(=O)Oc1ccc2c(c1)[C@]1(C)CCN(C)[C@@H]1N2C [physostigmine] | All four enzyme variants could be inhibited by physostigmine. |  |  |  |  |  |
| CNC(=O)Oc1cccc2ccccc12 [carbaryl] |  | 0.033 µM | 0.056 µM | 0.016 µM | 0.021 µM |  |
| CNC(=O)ON=C(C)SC [methomyl] |  | 0.75 µM |  | 4.38 µM | 0.47 µM |  |
| CNC(=O)Oc1cccc2c1OC(C)(C)C2O (stereo not drawn) [carbofuran-3-hydroxy] |  | 0.076 µM | 0.193 µM | 0.246 µM | 0.043 µM |  |
| CCOC(=O)CC(SP(=S)(OC)OC)C(=O)OCC (stereo not drawn) [malathion] |  | 2.82 µM |  |  | 1.13 µM | 5.43 µM |

— article PMC6274772, “Guided Evolution of Recombinant Bombyx mori Acetylcholinesterase II by Homology Modeling to Change Pesticide Sensitivity” (International Journal of Molecular Sciences, 2018)
